Where two headings read alike, the source gives them in different places.
Key:
[1] = from 3-[[4-[(1-benzylpiperazin-2-yl)methoxy]-6-(2,6-dimethylphenyl)pyrimidin-2-yl]sulfamoyl]benzoic acid (Dihydrochloride salt); amide bond; 14-membered ring; HATU/DIEA; DMF; 12.7 mM; 25.0 °C; 3 steps
[2] = molecular target: T1, CFTR-mediated short-circuit current in F508del/MF-HBE cells (Homo sapiens, UniProt P13569, DEL508-508); test: HBE assay: Ussing chamber assay of CFTR-mediated short-circuit currents; assay type: cell-based; conditions: for Emax: read-out: HBE Max Activity (%)
T1 construct: human bronchial epithelial (HBE) cells derived from CF subjects; endogenous in cells; host or cells: primary human bronchial epithelial cells from CF subjects (F508del/MF-HBE)
T1 sequence (P13569 with tags, fused parts or gaps DEL508-508): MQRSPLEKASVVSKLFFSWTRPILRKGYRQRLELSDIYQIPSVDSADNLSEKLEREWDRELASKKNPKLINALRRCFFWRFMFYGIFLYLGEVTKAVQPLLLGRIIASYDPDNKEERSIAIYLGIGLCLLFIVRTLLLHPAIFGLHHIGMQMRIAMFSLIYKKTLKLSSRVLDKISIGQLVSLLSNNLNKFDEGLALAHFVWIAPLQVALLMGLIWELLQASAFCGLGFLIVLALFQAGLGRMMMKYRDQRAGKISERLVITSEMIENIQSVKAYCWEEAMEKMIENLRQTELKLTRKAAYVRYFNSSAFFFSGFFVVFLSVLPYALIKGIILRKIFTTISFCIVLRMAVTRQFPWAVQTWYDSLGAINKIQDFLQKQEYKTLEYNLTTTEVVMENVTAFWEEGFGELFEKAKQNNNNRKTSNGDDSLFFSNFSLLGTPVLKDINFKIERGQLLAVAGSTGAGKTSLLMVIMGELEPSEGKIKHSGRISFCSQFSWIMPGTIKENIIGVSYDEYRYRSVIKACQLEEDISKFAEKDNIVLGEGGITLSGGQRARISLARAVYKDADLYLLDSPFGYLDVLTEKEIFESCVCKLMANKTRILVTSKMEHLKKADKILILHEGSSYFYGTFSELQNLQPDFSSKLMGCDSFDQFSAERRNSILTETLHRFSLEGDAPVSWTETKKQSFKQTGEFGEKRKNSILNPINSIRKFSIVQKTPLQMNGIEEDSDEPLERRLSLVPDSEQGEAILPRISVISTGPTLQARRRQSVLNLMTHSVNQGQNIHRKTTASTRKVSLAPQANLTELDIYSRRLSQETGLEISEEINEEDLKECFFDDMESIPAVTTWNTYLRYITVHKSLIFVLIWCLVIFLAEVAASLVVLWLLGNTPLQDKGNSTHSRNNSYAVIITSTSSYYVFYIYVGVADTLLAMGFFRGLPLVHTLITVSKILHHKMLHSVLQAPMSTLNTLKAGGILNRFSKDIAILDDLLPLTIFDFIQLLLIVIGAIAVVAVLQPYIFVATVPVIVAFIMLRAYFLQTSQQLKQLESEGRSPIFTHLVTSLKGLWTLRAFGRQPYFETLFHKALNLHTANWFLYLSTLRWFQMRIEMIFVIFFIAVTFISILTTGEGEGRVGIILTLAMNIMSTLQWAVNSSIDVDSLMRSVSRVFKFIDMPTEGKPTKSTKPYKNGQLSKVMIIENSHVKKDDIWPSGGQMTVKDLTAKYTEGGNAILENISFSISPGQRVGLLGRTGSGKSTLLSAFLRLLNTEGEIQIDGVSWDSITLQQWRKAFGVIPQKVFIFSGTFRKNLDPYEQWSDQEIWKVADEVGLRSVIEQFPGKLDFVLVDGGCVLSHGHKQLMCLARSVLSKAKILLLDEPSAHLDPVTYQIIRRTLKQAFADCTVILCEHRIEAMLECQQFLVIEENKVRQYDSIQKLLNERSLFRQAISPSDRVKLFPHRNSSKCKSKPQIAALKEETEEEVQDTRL
Protocol: 1. Ussing Chamber Assay of CFTR-Mediated Short-Circuit Currents
Ussing chamber experiments were performed using human bronchial epithelial (HBE) cells derived from CF subjects heterozygous for F508del and a minimal function CFTR mutation (F508del/MF-HBE) and cultured as previously described (Neuberger T, Burton B, Clark H, Van Goor F Methods Mol Biol 2011:741:39-54). After four days the apical media was removed, and the cells were grown at an air liquid interface for >14 days prior to use.
(§1) To isolate the CFTR-mediated short-circuit (ISC) current, F508del/MF-HBE grown on Costar® Snapwell™ cell culture inserts were mounted in an Ussing chamber and the transepithelial ISC was measured under voltage-clamp recording conditions (Vhold=0 mV) at 37° C. The basolateral solution contained (in mM) 145 NaCl, 0.83 K2HPO4, 3.3 KH2PO4, 1.2 MgCl2, 1.2 CaCl2), 10 Glucose, 10 HEPES (pH adjusted to 7.4 with NaOH) and the apical solution contained (in mM) 145 NaGluconate, 1.2 MgCl2, 1.2 CaCl2, 10 glucose, 10 HEPES (pH adjusted to 7.4 with NaOH) and 30 μM amiloride to block the epithelial sodium channel. Forskolin (20 μM) was added to the apical surface to activate CFTR, followed by apical addition of a CFTR inhibitor cocktail consisting of BPO, GlyH-101, and CFTR inhibitor 172 (each at 20 μM final assay concentration) to specifically isolate CFTR currents. The CFTR-mediated ISC (μA/cm^2) for each condition was determined from the peak forskolin response to the steady-state current following inhibition.
2. Identification of Corrector Compounds
The activity of the CFTR corrector compounds on the CFTR-mediated ISC was determined in Ussing chamber studies as described above. The F508del/MF-HBE cell cultures were either incubated with the corrector compounds at a range of concentrations in combination with 1 μM Ivacaftor or were incubated with the corrector compounds at a single fixed concentration of 10 μM in combination with 1 μM Ivacaftor for 18-24 hours at 37° C. and in the presence of 20% human serum. The concentration of corrector compounds with 1 μM Ivacaftor during the 18-24 hours incubations was kept constant throughout the Ussing chamber measurement of the CFTR-mediated ISC to ensure compounds were present throughout the entire experiment.
as §1, with “CaCl2,” for “CaCl2),”

[3] = molecular target: T1, CFTR-mediated short-circuit current in F508del/MF-HBE cells; test: HBE2 assay: Ussing chamber assay of CFTR-mediated short-circuit currents; assay type: cell-based
How it was run: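 F508del/minimal-function HBE cells grown at air–liquid interface are incubated 18–24 h at 37 °C with corrector plus 44 nM potentiator, across a concentration range or at 1 and 3 μM. Short-circuit current is measured under voltage clamp (0 mV, 37 °C, pH 7.4, apical amiloride), forskolin-stimulated (20 μM), and taken as peak-to-post-inhibitor-cocktail current (μA/cm²).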

[4] = F508del/MF-HBE cells, 18-24 hours incubation
[5] = F508del/MF-HBE, 18-24 hours with 1 μM Ivacaftor, 20% human serum, compared to known Vertex corrector with Tezacaftor and Ivacaftor
[6] = F508del/MF-HBE, 18-24 hours with 1 μM Ivacaftor, 20% human serum, read-out: HBE EC50

Work on `Cc1cccc(C)c1-c1cc2nc(n1)NS(=O)(=O)c1cccc(c1)C(=O)N1CCNC(CO2)C1` (centres unmarked) yielded a ring closure, crude yield [1] of 22%.
In the case of `Cc1cccc(C)c1-c1cc2nc(n1)NS(=O)(=O)c1cccc(c1)C(=O)N1[C@@H](c3ncc(OC(C)C)cn3)CC[C@@H](C(C)C)[C@H]1CO2` (single isomer, unassigned) [Compound 388, 13-(2,6-Dimethylphenyl)-4-(5-isopropoxypyrimidin-2-yl)-7-isopropyl-17,17-dioxo-10-oxa-17λ^6-thia-3,14,16,23-tetrazatetracyclo[16.3.1.111,15.03,8]tricosa-1(21),11,13,15(23),18(22),19-hexaen-2-one], the EC50 [2, 4] is reported as under 1000 nM and the “HBE Max activity (%)” value [2, 4] is reported as “+++ (+++ is >60%)”.
For `Cc1cccc(C)c1-c1cc2nc(n1)NS(=O)(=O)c1cccc(c1)C(=O)N1[C@@H](c3ncc(OC(C)C)cn3)CC[C@@H](C(C)C)[C@H]1CO2` (single isomer, unassigned) [Compound 389, 13-(2,6-dimethylphenyl)-4-(5-isopropoxypyrimidin-2-yl)-7-isopropyl-17,17-dioxo-10-oxa-17λ^6-thia-3,14,16,23-tetrazatetracyclo[16.3.1.111,15.03,8]tricosa-1(21),11,13,15(23),18(22),19-hexaen-2-one], the EC50 [2, 4] was 1000 to 3000 nM and the “HBE Max activity (%)” value [2, 4] was “+ (+ is <30+)”.
With `Cc1cccc(C)c1-c1cc2nc(n1)NS(=O)(=O)c1cccc(c1)C(=O)N1[C@@H](c3cccc(N(C)C4CC5(CC5)C4)n3)CC[C@@H](C(C)C)[C@H]1CO2` (single isomer, unassigned) [Compound 390, 13-(2,6-dimethylphenyl)-7-isopropyl-4-[6-[methyl(spiro[2.3]hexan-5-yl)amino]-2-pyridyl]-17,17-dioxo-10-oxa-17λ^6-thia-3,14,16,23-tetrazatetracyclo[16.3.1.111,15.03,8]tricosa-1(21),11,13,15(23),18(22),19-hexaen-2-one] the “HBE Activity at 10 μM (%)” value [2] was “+++ (+++ is >60%)”.
In the case of `Cc1cccc(C)c1-c1cc2nc(n1)NS(=O)(=O)c1cccc(c1)C(=O)N1[C@@H](c3cccc(N(C)C4CC5(CC5)C4)n3)CC[C@@H](C(C)C)[C@H]1CO2` (single isomer, unassigned) [Compound 391, 13-(2,6-dimethylphenyl)-7-isopropyl-4-[6-[methyl(spiro[2.3]hexan-5-yl)amino]-2-pyridyl]-17,17-dioxo-10-oxa-17λ^6-thia-3,14,16,23-tetrazatetracyclo[16.3.1.111,15.03,8]tricosa-1(21),11,13,15(23),18(22),19-hexaen-2-one], the “HBE Activity at 10 μM (%)” value [2] is reported as “++ (++ is 30-60%)”.
For `Cc1cccc(C)c1-c1cc2nc(n1)NS(=O)(=O)c1cccc(c1)C(=O)N1[C@@H](c3ncc(OC(C)C)cn3)CC[C@@H](CC(C)C)[C@H]1CO2` (single isomer, unassigned) [Compound 392, 13-(2,6-dimethylphenyl)-7-isobutyl-4-(5-isopropoxypyrimidin-2-yl)-17,17-dioxo-10-oxa-17λ^6-thia-3,14,16,23-tetrazatetracyclo[16.3.1.111,15.03,8]tricosa-1(21),11,13,15(23),18(22),19-hexaen-2-one], the “HBE Activity at 10 μM (%)” value [2] was “++ (++ is 30-60%)”.
With `Cc1cccc(C)c1-c1cc2nc(n1)NS(=O)(=O)c1cccc(c1)C(=O)N1[C@@H](c3ncc(OC(C)C)cn3)CC[C@@H](CC(C)C)[C@H]1CO2` (single isomer, unassigned) [Compound 393, 13-(2,6-dimethylphenyl)-7-isobutyl-4-(5-isopropoxypyrimidin-2-yl)-17,17-dioxo-10-oxa-17λ^6-thia-3,14,16,23-tetrazatetracyclo[16.3.1.111,15.03,8]tricosa-1(21),11,13,15(23),18(22),19-hexaen-2-one] the activation at 3 µM [3] was over 60% and the “HBE Activity at 10 μM (%)” value [2] was “+++ (+++ is >60%)”.
For `Cc1cccc(C)c1-c1cc2nc(n1)NS(=O)(=O)c1cccc(c1)C(=O)N1[C@H](CCC[C@@H]1c1ccccn1)CO2` [Compound 327], the “HBE Max activity (%)” value [2, 5] was “++ (++ is 30-60%)” and the EC50 [2, 6] was 3000 to 30000 nM.
Compound `Cc1cccc(C)c1-c1cc2nc(n1)NS(=O)(=O)c1cccc(c1)C(=O)N1[C@H](CCC[C@@H]1c1ccccn1)CO2` [Compound 328] has an Emax [2, 5] of 30 to 60% and an EC50 [2, 6] of 1000 to 3000 nM.
With `Cc1cccc(C)c1-c1cc2nc(n1)NS(=O)(=O)c1cccc(c1)C(=O)N1C(c3ncc(OC(C)C)cn3)CCC(C(C)C)C1CO2` (centres unmarked) [Compound 371] the Emax [2, 5] was over 60% and the EC50 [2, 6] was under 1000 nM.
In the case of `Cc1cccc(C)c1-c1cc2nc(n1)NS(=O)(=O)c1cccc(c1)C(=O)N1C(c3ncc(OC(C)C)cn3)CCC(CC(C)C)C1CO2` (centres unmarked) [Compound 414], the “HBE Activity at 10 μM (%)” value [2] is reported as “+++ (+++ is >60%)”.
